Drawing on patent publication US11274090B2, “P300/CBP HAT inhibitors” (Constellation Pharmaceuticals, Inc., priority 2018, dated 2022), this text covers IC50 for 51 compounds.

pIC50: −log10 of the molar value. Where only a bound is given, the exact number is not on record here.

p300 HAT domain (residues 1287-1666), sequence (Q09472 1287-1666): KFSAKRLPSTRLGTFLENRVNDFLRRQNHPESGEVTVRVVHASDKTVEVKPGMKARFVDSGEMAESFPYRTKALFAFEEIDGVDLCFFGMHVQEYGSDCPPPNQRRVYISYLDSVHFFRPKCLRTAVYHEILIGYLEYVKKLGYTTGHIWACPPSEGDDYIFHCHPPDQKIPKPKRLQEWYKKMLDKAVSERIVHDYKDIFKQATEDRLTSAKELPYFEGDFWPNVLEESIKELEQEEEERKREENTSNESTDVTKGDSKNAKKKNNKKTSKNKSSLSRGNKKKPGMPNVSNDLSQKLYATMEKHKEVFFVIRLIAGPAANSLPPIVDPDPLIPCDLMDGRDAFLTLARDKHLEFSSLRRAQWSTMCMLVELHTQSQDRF

This experiment deals with p300 HAT domain (residues 1287-1666) (Homo sapiens (Human), UniProt Q09472). In words: p300 HAT SPA assay (scintillation proximity assay, acetylation of biotinylated H3(1-21) peptide). The class given is biochemical. The note with it: average of at least 2 replicate titrations. The protocol:
In a typical experiment the p300 HAT inhibitory activity of the compounds described herein was determined in accordance with the following experimental method.
The expressed protein was purified by Ni2+ affinity, followed by anion exchange chromatography. Appropriate fractions were pooled and buffer exchanged into 20 mM Hepes pH 7.5, 150 mM NaCl, and 1 mM TCEP.
35 μL of the reaction volume was transferred to a 384-well streptavidin FlashPlate (PerkinElmer) using a Bravo liquid handler (Velocity 11) and incubated for 1.5 hr at RT. […] Data were analyzed in Genedata to determine inhibitor IC50 values.
In general terms: Scintillation proximity formats need no separation of bound from free tracer.
On to `CC(Cc1ccc(Cl)cc1)NC(C(=O)Nc1ccc(-c2cnn(C)c2)cc1)c1ccccc1` (single isomer, unassigned) [3 Isomer 4], for which the negative logarithm of the IC50 (pIC50) was 5.41. In the case of `Cn1cc(-c2ccc(NC(=O)C(NCCc3ccc(C#N)cc3)c3ccc(Cl)cc3)nc2)cn1` (single isomer, unassigned) [67 Isomer 2], the pIC50 was 6.67. The value for `Cn1cc(-c2cnc(NC(=O)C(NCCc3ccc(C#N)cc3)c3ccccc3)c(Cl)c2)cn1` (single isomer, unassigned) [43 Isomer 1] was 6.73.

`COC1CN(c2ccc(NC(=O)C(NCC(C)c3ccc(C#N)cc3)c3ccccc3)nc2)C1` (single isomer, unassigned) [32 Isomer 3] gave a negative-log IC50 (pIC50) below 5.70. `Cn1cc(-c2ccc(NC(=O)C(NCC3(c4ccc(Cl)cc4)CC3)c3ccccc3)nc2)cn1` (single isomer, unassigned) [97 Isomer 1] showed a pIC50 of 6.72. The value for `COc1ccccc1C(NCCc1ccc(C#N)cc1)C(=O)Nc1ccc(-c2cnn(C)c2)cn1` (single isomer, unassigned) [87 Isomer 1] was 6.58; that for `CC(CNC(C(=O)Nc1ccc(-c2cnn(C(C)(C)C)c2)cn1)c1ccccc1)c1ccc(C#N)cc1` (single isomer, unassigned) [54 Isomer 3] was below 5.70; that for `CC(CNC(C(=O)Nc1ccc(-c2cnn(C3CCC3)c2)cn1)c1ccccc1)c1ccc(C#N)cc1` (single isomer, unassigned) [52 Isomer 3] was 7.51. The value for `CC(CNC(C(=O)Nc1ccc(-c2cnn(C)c2)cn1)c1cnn(C)c1)c1ccc(C#N)cc1` (single isomer, unassigned) [127 Isomer 3] was below 5.70; that for `CC1C(=O)N(C)CCN1c1ccc(NC(=O)C(NC[C@@H](C)c2ccc(C#N)cc2)c2ccccc2)nc1` (single isomer, unassigned) [126 Isomer 2] was below 5.70; that for `C[C@H](CNC(C(=O)Nc1ccc(-c2cnn(C)c2)cn1)c1cncc(F)c1)c1ccc(C#N)cc1` (single isomer, unassigned) [129 Isomer 1] was 7.12. In the case of `CO[C@H]1CCN(c2ccc(NC(=O)C(NCC(C)c3ccc(C#N)cc3)c3ccccc3)nc2)C1` (single isomer, unassigned) [93 Isomer 4], the negative-log IC50 (pIC50) is below 5.70. The value for `CC(CNC(C(=O)Nc1ccc(-c2cnn(C)n2)cn1)c1ccccc1)c1ccc(C(F)(F)F)cc1` (single isomer, unassigned) [99 Isomer 3] was below 5.70; that for `N#Cc1ccc(CCNC(C(=O)Nc2ccn(-c3ccccc3)n2)c2ccccc2)cc1` (single isomer, unassigned) [50 Isomer 1] was 6.55; that for `NS(=O)(=O)c1ccc(CCN[C@H](C(=O)N2CCc3ccccc32)c2ccccc2)cc1` (single isomer, unassigned) [153 Isomer 1] was below 4.22.

Compound `Cn1cc(-c2ccc(NC(=O)C(NCCc3ccc(Cl)cc3C#N)c3ccccc3)nc2)cn1` (single isomer, unassigned) [94 Isomer 1] gave a negative-log IC50 (pIC50) of 7.07. With `CC(CNC(C(=O)Nc1ccc(-c2cnn(C(F)F)c2)cn1)c1cnn(C)c1)c1ccc(C#N)cc1` (single isomer, unassigned) [128 Isomer 2] the figure was below 5.70; with “(S,R)-, (R,S)-, (S,S)-, (R,R)-(2-((2-(4-cyanophenyl)propyl)amino)-N-(5-(1-(difluoromethyl)-1H-pyrazol-4-yl)pyridin-2-yl)-2-phenylacetamide [20 Isomer 1]”, 6.03; with `CC(CNC(C(=O)Nc1ccc(-c2cnn(C(C)(C)C)c2)cn1)c1ccccc1)c1ccc(C#N)cc1` (single isomer, unassigned) [54 Isomer 2], 7.62. With `CC(CNC(C(=O)Nc1ccc(N2CCN(C)S2(=O)=O)cn1)c1ccccc1)c1ccc(C#N)cc1` (single isomer, unassigned) [108 Isomer 3], the pIC50 is below 5.70. With `Cn1cc(-c2ccc(NC(=O)C(NCC(c3ccc(C#N)cc3)C(F)(F)F)c3ccccc3)nc2)cn1` (single isomer, unassigned) [149 Isomer 4] the figure was below 5.70. With `CC(CNC(C(=O)Nc1ccc(-c2cnn(C)c2)cc1)c1ccccc1)c1ccc(Cl)cc1` (single isomer, unassigned) [2 Isomer 1] the figure was below 5.30. `C[C@H](CNC(C(=O)Nc1ccc(N2CCN(C)C(=O)C2)cn1)c1cccc(F)c1)c1ccc(C#N)cc1` (single isomer, unassigned) [137 Isomer 1]: the negative logarithm of the IC50 (pIC50) is 6.11. With `Cc1ncc(C(C)CNC(C(=O)Nc2ccc(-c3cnn(C)c3)cn2)c2ccccc2)cn1` (single isomer, unassigned) [150 Isomer 1] the figure was below 5.70; with `Cn1cc(-c2ccc(NC(=O)C(NCCc3ccc(C#N)cc3)c3cccc(Cl)c3)nc2)cn1` (single isomer, unassigned) [79 Isomer 1], below 5.70; with `CC(CNC(C(=O)Nc1ccc(-c2cnn(C3CCC3)c2)cn1)c1ccccc1)c1ccc(C#N)cc1` (single isomer, unassigned) [52 Isomer 2], below 5.70. The value for `CC1C(=O)N(C)CCN1c1ccc(NC(=O)C(NC[C@@H](C)c2ccc(C#N)cc2)c2ccccc2)nc1` (single isomer, unassigned) [126 Isomer 1] was 7.68. The value for `CCCCCCc1cccc(C(NCCc2ccc(C#N)cc2)C(=O)Nc2ccc(-c3cnn(C)c3)cn2)c1` (single isomer, unassigned) [118 Isomer 1] was below 5.70; that for `CC(CNC(C(=O)Nc1ccc(-c2cnn(C(C)(C)C#N)c2)cn1)c1ccccc1)c1ccc(C#N)cc1` (single isomer, unassigned) [47 Isomer 1] was 6.35.

Regarding `Cn1cc(-c2ccc(NC(=O)C(NCCc3ccc(C#N)c(F)c3)c3ccccc3)nc2)cn1` (single isomer, unassigned) [85 Isomer 1], the negative-log IC50 (pIC50) is 7.50. With `CC1CN(C)C(=O)CN1c1ccc(NC(=O)C(NC[C@@H](C)c2ccc(C#N)cc2)c2ccccc2)nc1` (single isomer, unassigned) [125 Isomer 4] the figure was 7.71. `CC(CNC(C(=O)Nc1ccc(-c2cn(C)nn2)cn1)c1ccccc1)c1ccc(C#N)cc1` (single isomer, unassigned) [100 Isomer 4]: the pIC50 was below 5.70. `CCN1CCN(c2ccc(NC(=O)C(NCCc3ccc(C#N)cc3)c3ccccc3)nc2)C1=O` (single isomer, unassigned) [76 Isomer 2] gave a pIC50 below 5.70. The value for `Cc1ncn(-c2ccc(NC(=O)C(NCCc3ccc(C#N)cc3)c3ccccc3)nc2)n1` (single isomer, unassigned) [73 Isomer 2] was 6.71; that for `COc1cc(-c2cnn(C)c2)ccc1NC(=O)C(NCCc1ccc(C#N)cc1)c1ccccc1` (single isomer, unassigned) [24 Isomer 1] was below 5.30. Compound `N#Cc1ccc(CCNC(C(=O)Nc2ccc(N3CCCC3)nc2)c2ccccc2)cc1` (single isomer, unassigned) [35 Isomer 1] had a negative-log IC50 (pIC50) below 5.30. For the compound `CN1CCN(c2ccc(NC(=O)[C@H](NCCc3ccc(C#N)cc3)c3ccccc3)cc2)CC1` (single isomer, unassigned; isomer 2) [18 Isomer 2], the negative-log IC50 (pIC50) is below 5.30. The compound `Cc1ncc(-c2ccc(NC(=O)[C@@H](NC[C@H](C)c3ccc(C#N)cc3)c3ccccc3)nc2)cn1` (single isomer, unassigned; isomer 2) [6 Isomer 2] showed a pIC50 below 5.70. `CCCCCCc1cccc(C(NCCc2ccc(C#N)cc2)C(=O)Nc2ccc(-c3cnn(C)c3)cn2)c1` (single isomer, unassigned) [118 Isomer 2] showed a negative-log IC50 (pIC50) of 5.72. In turn, `CC(CNC(C(=O)Nc1ccc(-c2cnn(C(C)(C)C)c2)cn1)c1ccccc1)c1ccc(C#N)cc1` (single isomer, unassigned) [54 Isomer 1] showed a negative-log IC50 (pIC50) of 6.42. With `Cn1cc(-c2ccc(NC(=O)C(NCC3(c4ccc(Cl)cc4)CC3)c3ccccc3)nc2)cn1` (single isomer, unassigned) [97 Isomer 2] the figure was below 5.70. `CNC(=O)Cn1cc(-c2ccc(NC(=O)C(NC[C@@H](C)c3ccc(C#N)cc3)c3ccccc3)nc2)cn1` (single isomer, unassigned) [146 Isomer 1] gave a pIC50 of 6.00. The compound `Cn1cc(-c2ccc(NC(=O)C(NCCc3ccc(C#N)cc3C(F)(F)F)c3ccccc3)nc2)cn1` (single isomer, unassigned) [95 Isomer 2] gave a pIC50 of 6.00. With `CC(CNC(C(=O)Nc1ccc(-c2cnn(CC(F)(F)F)c2)cn1)c1ccccc1)c1ccc(C#N)cc1` (single isomer, unassigned) [83 Isomer 1] the figure was below 5.70.

Compound `CC(CNC(C(=O)Nc1ccc(-c2cnn(C)c2)cn1)c1ccccc1)c1ccc(C#N)cc1F` (single isomer, unassigned) [90 Isomer 3] showed a pIC50 of 5.80. With `Cn1cc(-c2ccc(NC(=O)C(NCCc3ccc(C#N)cc3)c3cccc(C#N)c3)nc2)cn1` (single isomer, unassigned) [116 Isomer 2] the figure was below 5.70; with `CN1CCN(c2ccc(NC(=O)[C@@H](NCCc3ccc(Cl)cc3)c3ccccc3)cc2)CC1` (single isomer, unassigned) [17 Isomer 2], below 5.30; with `N#Cc1ccc(CCNC(C(=O)Nc2ccc(N3CCC4(COC4)C3)cn2)c2ccccc2)cc1` (single isomer, unassigned) [96 Isomer 2], below 5.70. With `CC(CNC(C(=O)Nc1ccc(N2CCN(C)S2(=O)=O)cn1)c1ccccc1)c1ccc(C#N)cc1` (single isomer, unassigned) [108 Isomer 4] the figure was below 5.70; with `Cc1cn(-c2ccc(NC(=O)C(NCCc3ccc(C#N)cc3)c3ccccc3)nc2)nn1` (single isomer, unassigned) [78 Isomer 2], below 5.70. Regarding `COC1CN(c2ccc(NC(=O)C(NCC(C)c3ccc(C#N)cc3)c3ccccc3)nc2)C1` (single isomer, unassigned) [32 Isomer 4], the pIC50 was below 5.70.

Usually pIC50 stands for the negative decadic logarithm of the IC50, by convention in mol/L. Read a high pIC50 as a low IC50.
